Values quoted from earlier work, collected in patent US4721704A, “Potent synthetic atrial peptide analogs” (Peninsula Laboratories, Inc., priority 1986, dated 1988).
Ends that are not written are not given here.

Legend:
[1] = Atriopeptin III and α-hANP compared with each other
[2] = tested on: patients; settings: 400 μg bolus doses

α-human atrial natriuretic polypeptide (SLRRSSCFGGRMDRIGAQSGLGCNSFRY; ends and bridges not checked; cysteine pairing not given here; UniProt P01160 124-151, looked up) [α-hANP, peptide isolated from human atria]
hypotensive, diuretic and natriuretic activities [1]: about comparable
diuretic action [2]: acting as a diuretic
effect on blood pressure [2]: decreasing blood pressure
